Measurements taken from patent US20210308173A1, “PHARMACEUTICAL COMPOSITION COMPRISING CYCLODEXTRIN COMPLEXES OF ANETHOLE TRITHIONE OR DERIVATIVES THEREOF” (priority 2018, published 2021).

Test: Cyclodextrin-AOL solubility diagrams
Format: physicochemical
Text: A cyclodextrin-AOL solubility diagram would reveal the profile of the solubility curve of the AOL depending on the concentration of the cyclodextrin. The principle of this method is to add an excess of AOL to cyclodextrin solutions of increasing concentration, then to measure the amount of solubilized AOL. This method confirms the solubilization and evaluates more precisely the cyclodextrin solubilizing power, to define a stoichiometry of the complexes (molar and mass ratios) over the entire range of concentrations studied and to estimate the solubility limit and the stability of the mixtures.
The solubilization was carried out with HP-β-CD and SBE-β-CD in a range of concentration ranging from 2.5% to 40% (m/m) at 20° C., 25° C. and 30° C. To check the stability of the solution, a storage test at 4° C. for 48 hours was carried out with the solutions previously prepared at 20° C.
Aqueous solutions of cyclodextrin at in weight (m/m) concentrations of 2.5%, 5%, 10%, 20%, 30% and 40% were prepared in pure water. An excess of AOL was suspended in 2 mL each of these solutions. Each sample is shaken at 20° C., 25° C. or 30° C. for 4 hours (vortex at 1400 rpm). Each sample is centrifuged (12,500 g) and filtered through a 0.45 μm membrane.
The solubility of AOL in each test solution was quantified by HPLC as detailed in Example 2.

[1] = HP-β-CD 2.5% (w/w), 20° C. followed by 48 hours at 4° C.
[2] = HP-β-CD 5% (w/w), 20° C. followed by 48 hours at 4° C.
[3] = HP-β-CD 10% (w/w), 20° C. followed by 48 hours at 4° C.
[4] = HP-β-CD 20% (w/w), 20° C. followed by 48 hours at 4° C.
[5] = HP-β-CD 30% (w/w), 20° C. followed by 48 hours at 4° C.
[6] = HP-β-CD 40% (w/w), 20° C. followed by 48 hours at 4° C.
[7] = SBE-β-CD 2.5% (w/w), 20° C. followed by 48 hours at 4° C.
[8] = SBE-β-CD 5% (w/w), 20° C. followed by 48 hours at 4° C.
[9] = SBE-β-CD 10% (w/w), 20° C. followed by 48 hours at 4° C.

- CD/AOL molar ratio RM (HP-β-CD 2.5% (w/w), 20° C.): 200
- CD/AOL weight ratio Rm (HP-β-CD 2.5% (w/w), 20° C.): 1866
- CD/AOL molar ratio RM [1]: 231
- CD/AOL weight ratio Rm [1]: 2155
- CD/AOL molar ratio RM (HP-β-CD 2.5% (w/w), 25° C.): 137
- CD/AOL weight ratio Rm (HP-β-CD 2.5% (w/w), 25° C.): 1282
- CD/AOL molar ratio RM (HP-β-CD 2.5% (w/w), 30° C.): 103
- CD/AOL weight ratio Rm (HP-β-CD 2.5% (w/w), 30° C.): 958
- CD/AOL molar ratio RM (HP-β-CD 5% (w/w), 20° C.): 196
- CD/AOL weight ratio Rm (HP-β-CD 5% (w/w), 20° C.): 1832
- CD/AOL molar ratio RM [2]: 213
- CD/AOL weight ratio Rm [2]: 1992
- CD/AOL molar ratio RM (HP-β-CD 5% (w/w), 25° C.): 133
- CD/AOL weight ratio Rm (HP-β-CD 5% (w/w), 25° C.): 1247
- CD/AOL molar ratio RM (HP-β-CD 5% (w/w), 30° C.): 104
- CD/AOL weight ratio Rm (HP-β-CD 5% (w/w), 30° C.): 973
- CD/AOL molar ratio RM (HP-β-CD 10% (w/w), 20° C.): 175
- CD/AOL weight ratio Rm (HP-β-CD 10% (w/w), 20° C.): 1631
- CD/AOL molar ratio RM [3]: 203
- CD/AOL weight ratio Rm [3]: 1898
- CD/AOL molar ratio RM (HP-β-CD 10% (w/w), 25° C.): 128
- CD/AOL weight ratio Rm (HP-β-CD 10% (w/w), 25° C.): 1192
- CD/AOL molar ratio RM (HP-β-CD 10% (w/w), 30° C.): 94
- CD/AOL weight ratio Rm (HP-β-CD 10% (w/w), 30° C.): 874
- CD/AOL molar ratio RM (HP-β-CD 20% (w/w), 20° C.): 148
- CD/AOL weight ratio Rm (HP-β-CD 20% (w/w), 20° C.): 1381
- CD/AOL molar ratio RM [4]: 197
- CD/AOL weight ratio Rm [4]: 1840
- CD/AOL molar ratio RM (HP-β-CD 20% (w/w), 25° C.): 116
- CD/AOL weight ratio Rm (HP-β-CD 20% (w/w), 25° C.): 1086
- CD/AOL molar ratio RM (HP-β-CD 20% (w/w), 30° C.): 84
- CD/AOL weight ratio Rm (HP-β-CD 20% (w/w), 30° C.): 784
- CD/AOL molar ratio RM (HP-β-CD 30% (w/w), 20° C.): 132
- CD/AOL weight ratio Rm (HP-β-CD 30% (w/w), 20° C.): 1235
- CD/AOL molar ratio RM [5]: 172
- CD/AOL weight ratio Rm [5]: 1607
- CD/AOL molar ratio RM (HP-β-CD 30% (w/w), 25° C.): 112
- CD/AOL weight ratio Rm (HP-β-CD 30% (w/w), 25° C.): 1044
- CD/AOL molar ratio RM (HP-β-CD 30% (w/w), 30° C.): 70
- CD/AOL weight ratio Rm (HP-β-CD 30% (w/w), 30° C.): 655
- CD/AOL molar ratio RM (HP-β-CD 40% (w/w), 20° C.): 124
- CD/AOL weight ratio Rm (HP-β-CD 40% (w/w), 20° C.): 1162
- CD/AOL molar ratio RM [6]: 159
- CD/AOL weight ratio Rm [6]: 1481
- CD/AOL molar ratio RM (HP-β-CD 40% (w/w), 25° C.): 103
- CD/AOL weight ratio Rm (HP-β-CD 40% (w/w), 25° C.): 958
- CD/AOL molar ratio RM (HP-β-CD 40% (w/w), 30° C.): 66
- CD/AOL weight ratio Rm (HP-β-CD 40% (w/w), 30° C.): 621
- CD/AOL molar ratio RM (SBE-β-CD 2.5% (w/w), 20° C.): 91
- CD/AOL weight ratio Rm (SBE-β-CD 2.5% (w/w), 20° C.): 853
- CD/AOL molar ratio RM [7]: 158
- CD/AOL weight ratio Rm [7]: 1479
- CD/AOL molar ratio RM (SBE-β-CD 2.5% (w/w), 25° C.): 75
- CD/AOL weight ratio Rm (SBE-β-CD 2.5% (w/w), 25° C.): 698
- CD/AOL molar ratio RM (SBE-β-CD 2.5% (w/w), 30° C.): 60
- CD/AOL weight ratio Rm (SBE-β-CD 2.5% (w/w), 30° C.): 559
- CD/AOL molar ratio RM (SBE-β-CD 5% (w/w), 20° C.): 90
- CD/AOL weight ratio Rm (SBE-β-CD 5% (w/w), 20° C.): 838
- CD/AOL molar ratio RM [8]: 155
- CD/AOL weight ratio Rm [8]: 1445
- CD/AOL molar ratio RM (SBE-β-CD 5% (w/w), 25° C.): 71
- CD/AOL weight ratio Rm (SBE-β-CD 5% (w/w), 25° C.): 668
- CD/AOL molar ratio RM (SBE-β-CD 5% (w/w), 30° C.): 56
- CD/AOL weight ratio Rm (SBE-β-CD 5% (w/w), 30° C.): 520
- CD/AOL molar ratio RM (SBE-β-CD 10% (w/w), 20° C.): 85
- CD/AOL weight ratio Rm (SBE-β-CD 10% (w/w), 20° C.): 798
- CD/AOL molar ratio RM [9]: 151
- CD/AOL weight ratio Rm [9]: 1414
- CD/AOL molar ratio RM (SBE-β-CD 10% (w/w), 25° C.): 68
- CD/AOL weight ratio Rm (SBE-β-CD 10% (w/w), 25° C.): 639
- CD/AOL molar ratio RM (SBE-β-CD 10% (w/w), 30° C.): 54
- CD/AOL weight ratio Rm (SBE-β-CD 10% (w/w), 30° C.): 507
- CD/AOL molar ratio RM (SBE-β-CD 20% (w/w), 20° C.): 77
Structure (SMILES): COc1ccc(-c2cc(=S)ss2)cc1 [AOL, 5-(4-methoxyphenyl)-3H-1,2-dithiole-3-thione]
